34 sequences from patent US20190290729A1, “PHARMACEUTICAL ASSOCIATION OF GROWTH FACTOR RECEPTOR AGONIST AND ADHESION PROTEIN INHIBITOR FOR CONVERTING A NEOPLASTIC CELL INTO A NON-NEOPLASTIC CELL AND USES THEREOF” (HISTIDE AG, priority 2015, published 2019) can be followed below.

In assay [1] the test system is human rhabdosarcoma cells. Nature of the assay: p53 quantification, same procedure, rhabdosarcoma cells. The format is cell-based. Also on record: P53: unit not given here. The conditions noted are these: for P53: Table 9, in association with SiRNA Integrin alpha 3+RGDSPC+SiRNA Integrin beta 1+SiRNA Syndecan 1 (SEQ ID NO: 31, 32, 164 to 187). How it is done: (§1) The following starting materials and reagents were used: • Type-I collagen sponge was obtained from Sigma®. • PBS 1× was obtained from Gibco®. • MilliQ water: is water characterised in terms of resistivity (typically 18.2 MΩ·cm at 25° C.). • Low glucose Dulbecco's Modified Eagle Medium (DMEM) was obtained from Invitrogen® • Minimum Essential Medium Eagle without ascorbic acid (αMEM) was obtained from Invitrogen®. • All of the cell culture experiments were carried out without any serum in the medium for the first 8 hours of culture. • Osteosarcoma cells: MG63 cells were obtained from ATCC®. These cells were cultured in DMEM (Eagle's Minimum Essential Medium) medium supplemented with 10% fetal calf serum (FCS) and 1% penicillin/streptomycin. All cells were used at a low passage number (passage 10), were subconfluently cultured and were seeded at 10^4 cells/cm^2 for the purpose of the experiments. • Chondrosarcoma cells Hs819.T cells were obtained from ATCC®. These cells were cultured in DMEM (Eagle's Minimum Essential Medium) medium supplemented with 10% fetal calf serum (FCS) and 1% penicillin/streptomycin. All cells were used at a low passage number (passage 10), were subconfluently cultured and were seeded at 10^4 cells/cm^2 for the purpose of the experiments. • Rhabdomyosarcoma cells: A-673 cells were obtained from ATCC®. These cells were cultured in DMEM (Eagle's Minimum Essential Medium) medium supplemented with 10% fetal calf serum (FCS) and 1% penicillin/streptomycin. All cells were used at a low passage number (passage 10), were subconfluently cultured and were seeded at 10^4 cells/cm^2 for the purpose of the experiments. • Adenocarcinoma cells: HCC4006 cells were obtained from ATCC®. These cells were cultured in RPMI-1640 medium (obtained from ATCC®) supplemented with 10% fetal calf serum (FCS) and 1% penicillin/streptomycin. All cells were used at a low passage number (passage 10), were subconfluently cultured and were seeded at 10^4 cells/cm^2 for the purpose of the experiments. • CMFDA is a Cell Tracker Green obtained from Invitrogen®. • DAPI was obtained from Sigma®. • Fetal bovine serum (FBS) was obtained from Gibco®. • Penicillin/streptomycin was obtained from Invitrogen®. • The AlamarBlue® assay was obtained from Molecular Probes®. • Anti phospho-p53 antibody was obtained from Santa Cruz Biotechnology®, • Anti pRB antibody was obtained from Santa Cruz Biotechnology®, • Monoclonal anti-integrin (extracellular domain) αv, α5, α3, α4, β1, β3, β5 and β9 antibodies were obtained from Santa Cruz Biotechnology®, • Cell cytoskeletal filamentous actin (F-actin) was visualized by Alexa Fluor® 488 phalloidin Sigma® labeling. • Monoclonal anti-vinculin antibody (clone hVIN-1, produced in mouse) was obtained from Sigma®.
(§2) • All of the peptides were synthetized using conventional solution and/or solid phase peptide synthesis methods. • All of the experiments were performed with a concentration of 400 ng/mL of GFR-binding compound(s) as defined herein. • All cell culture experiments were performed with cultures on plastic coated with type-I collagen in order to mimic the physiological conditions of the human body. • The compositions of pharmaceutical compositions used in the examples below are summarized in the following table:
(§3) The cells were first fixed for 20 min with 4% paraformaldehyde/PBS at 4° C. After fixation, the cells were permeabilized in PBS containing 1% Triton X-100 for 15 min. Protein immunofluorescent visualization was performed by first treating the cells with 1% (v/v) specific monoclonal antibodies for 1 hour at 37° C. Then the samples were incubated with Alexa Fluor® 568 or 647 (F(ab′)2 fragment of IgG(H+L)) during 30 min at room temperature. The cell nuclei were counterstained in 20 ng/mL DAPI for 10 min at room temperature.
(§4) For this type of quantification the freeware image analysis ImageJ® software was used. […]

In assay [2] the test system is human rhabdosarcoma cells. Nature of the assay: pRB quantification, same procedure, rhabdosarcoma cells. To be noted: for pRB: Table 9, in association with SiRNA Integrin alpha 3+RGDSPC+SiRNA Integrin beta 1+SiRNA Syndecan 1 (SEQ ID NO: 31, 32, 164 to 187). The format is cell-based. As for the experimental part:
as §1, §2, §3, §4

Where [3] appears, read: Table 8, in association with SiRNA Integrin alpha 3, v, 4 and SiRNA Integrin beta 1.
The mark [4] stands for this setting: Table 5, cyclic GFR-binding peptide in association with SiRNA Integrin alpha 3+RGDSPC+SiRNA Integrin beta 1+SiRNA Syndecan 1, 400 ng/mL.

Where no end group is shown, it is not given here.

As to “GTPGPRNVQCRPTQVQLSAISTLYLAAALKNYQTLE (Non-cyclic GFR-binding peptide) [SEQ ID NO: 173]”, in assay [1], the P53 turned out to be 37. The sequence further showed a pRB in assay [2] of 15.
For the sequence “TQVAARPVQTRKIDDMGVPTKKATVAAEDH (Non-cyclic GFR-binding peptide) [SEQ ID NO: 140]”, the “P53 (%)” value in assay [1] (setting [3]) came to 35%. In addition, the “pRB (%)” value in assay [2] (setting [3]) was determined as 17%.
In turn, “GTPGPASSAVSQELSAISMLYLGGGLKNYQDM (Non-cyclic GFR-binding peptide) [SEQ ID NO: 32]” had a P53 in assay [1] of 46. In addition, the pRB in assay [2] is on record as 7.
The matching figures for “CPARLSPISLLYIDAANNVVYKQYEDM (Non-cyclic GFR-binding peptide) [SEQ ID NO: 184]”: 39 and 11.
As to “VPTDDSATSTLYYDKGVVTYLRKHRDDEHS (Non-cyclic GFR-binding peptide) [SEQ ID NO: 137]”, in assay [1] (setting [3]), the “P53 (%)” value is 42%. In assay [2] (setting [3]), the “pRB (%)” value amounted to 12%.
“CASAAPSSVPQALEPLPIVYYVGRTPKVEQLSNMIVRSSK (Non-cyclic GFR-binding peptide) [SEQ ID NO: 175]” had a P53 in assay [1] of 45. The pRB in assay [2] came out at 7.
The matching figures for “GTPGPPKPSSAPTQLNAISMLYFGGGGGLKKYRDMQHN (Non-cyclic GFR-binding peptide) [SEQ ID NO: 169]”: 37 and 8.
On the same counts, the results for “CGIPEPSSVPEKMSSLSILFFDENKNVVLKVYPNM (Non-cyclic GFR-binding peptide) [SEQ ID NO: 179]” are 40 and 11.
As for “VPTAASAISILYLDAANNVVLKNYQAAVVE (Non-cyclic GFR-binding peptide) [SEQ ID NO: 123]”, the “P53 (%)” value in assay [1] (setting [3]) is reported as 32%. In assay [2] (setting [3]), the “pRB (%)” value stood at 11%.
The matching figures for “SRVLLRPVQMRKIDKGVVTYKKATVLLEEH (Non-cyclic GFR-binding peptide) [SEQ ID NO: 139]”: 49% and 18%.
On to “APVKMEPLPTVYYDDMGVPTEQLSNDMVEESGSLDDMGVPT (also: cyclic, ring not given here) [SEQ ID NO: 38225]”, for which the “P53 (%)” value in assay [1] (setting [4]) is recorded as 49%. The “pRB (%)” value in assay [2] (setting [4]) was determined as 9%.
In assay [1], “GTPGPAPTKLSAISMLYLDSSNNVILKKYR (Non-cyclic GFR-binding peptide) [SEQ ID NO: 166]” registered a P53 of 37. Besides, the pRB in assay [2] turned out to be 10.
For the sequence “VPTVVSPISMLYIDDMGVPTYKQYEVVVVE (Non-cyclic GFR-binding peptide) [SEQ ID NO: 131]”, in assay [1] (setting [3]), the “P53 (%)” value was determined as 36%. Further, the “pRB (%)” value in assay [2] (setting [3]) is 12%.
In assay [1], “CVPTEERSVKVAKVRIKPHQGQHKEVQV (Non-cyclic GFR-binding peptide) [SEQ ID NO: 176]” registered a P53 of 33. The sequence further registered a pRB in assay [2] of 7.
“SRVAARSVKMAKVGGGGGGGKEVQVAAEEH (Non-cyclic GFR-binding peptide) [SEQ ID NO: 136]”: in assay [1] (setting [3]), the “P53 (%)” value was determined as 38%. In addition, the “pRB (%)” value in assay [2] (setting [3]) came to 10%.
The matching figures for “VPTGGEPLTTLYYNDKQQIIEQLSNGGEHS (Non-cyclic GFR-binding peptide) [SEQ ID NO: 138]”: 45% and 20%.
With “CKIPKASSVPTELEPLPIVYYVGRKPKVEQLSNMIVRS (Non-cyclic GFR-binding peptide) [SEQ ID NO: 174]”, the P53 in assay [1] was 40. In assay [2], the pRB worked out at 6.
The matching figures for “CGIPEPSSVPEKTSSLSLLFFDENKNVVLKVYPNM (Non-cyclic GFR-binding peptide) [SEQ ID NO: 180]”: 29 and 9.
As for “KASSVPQEERPVQMRKIGGGGGGGKKATVMIVRSSKSSDDMGVPT (not fully specified; also: cyclic, mode of cyclisation not given here) [SEQ ID NO: 38219]”, the “P53 (%)” value in assay [1] (setting [4]) is recorded as 38%. In assay [2] (setting [4]), the “pRB (%)” value came out at 15%.
As for “IPKASSAPVGQRPVQMRKIDKGVVTYKKATVSSVEESGSLDKGVVTY (not fully specified; also: cyclic, mode of cyclisation not given here) [SEQ ID NO: 38218]”, the “P53 (%)” value in assay [1] (setting [4]) was 36%. Also, the “pRB (%)” value in assay [2] (setting [4]) is reported as 12%.
Take “APVAAKPLSMLYVDKGVVTYDHHKDAAVEE (Non-cyclic GFR-binding peptide) [SEQ ID NO: 132]”: in assay [1] (setting [3]), the “P53 (%)” value is 38%. For the same sequence, in assay [2] (setting [3]), the “pRB (%)” value is given as 9%.
In the case of “GTPGPAPTKLSAISMLYLDSSNNVILRKHR (Non-cyclic GFR-binding peptide) [SEQ ID NO: 165]”, the P53 in assay [1] was determined as 42. This sequence gave a pRB in assay [2] of 9.
“TPTSSSPINTLYFDDMGVPTYGKIPSSVVD (Non-cyclic GFR-binding peptide) [SEQ ID NO: 130]”: in assay [1] (setting [3]), the “P53 (%)” value is given as 48%. In assay [2] (setting [3]), the “pRB (%)” value was 15%.
The matching figures for “VPQQQEPLTTLYYDEYDKVVEQLSNQQVKS (Non-cyclic GFR-binding peptide) [SEQ ID NO: 134]”: 50% and 8%.
As for “VPTAAEPLTMLYYEIVRKKPIFEQLSNMVEHSDDMGVPT (also: cyclic peptide) [SEQ ID NO: 38223]”, the “P53 (%)” value in assay [1] (setting [4]) is 44%. For the same sequence, the “pRB (%)” value in assay [2] (setting [4]) is on record as 17%.
As for “GTPGPPSSAPTQLSATSVLYYDDSSNVILRKHRMIVKS (Non-cyclic GFR-binding peptide) [SEQ ID NO: 164]”, the P53 in assay [1] is 47. The pRB in assay [2] worked out at 10.
Turning to “VPTSSSPISTLYIDKGVVTYLKYHYSSVAE (Non-cyclic GFR-binding peptide) [SEQ ID NO: 128]”, the “P53 (%)” value in assay [1] (setting [3]) was determined as 36%. The “pRB (%)” value in assay [2] (setting [3]) worked out at 21%.
On to “EPSSVSQAAEPLPIVYYRIKPHQGQHEQLSNMIVKSSKSSDDMGVPT (also: cyclic peptide, ring closure not given here) [SEQ ID NO: 38226]”, for which the “P53 (%)” value in assay [1] (setting [4]) is reported as 29%. In addition, in assay [2] (setting [4]), the “pRB (%)” value worked out at 12%.
Take “GTPGPKASSVPTELSPISTLYKDENEKVVLKYHYDMVVEGSGSR (Non-cyclic GFR-binding peptide) [SEQ ID NO: 167]”: in assay [1], the P53 is listed as 41. In assay [2], this sequence displayed a pRB of 11.
Sequence “GTPGPRNVQCRPTQVQLSAISTLYLEIVRKKPLKNYQTLEDH (Non-cyclic GFR-binding peptide) [SEQ ID NO: 172]” returned a P53 in assay [1] of 33. The sequence further returned a pRB in assay [2] of 12.
On the same counts, the results for “WWFWGASSAVSQELSAISMLYLGGGLKNYQDMQHN (Non-cyclic GFR-binding peptide) [SEQ ID NO: 171]” are 47 and 8.
On the same counts, the results for “CVPQRLSPISILYIDAANNVVYKQYE (Non-cyclic GFR-binding peptide) [SEQ ID NO: 186]” are 38 and 12.
Consider “CAAAPASSSVPARLSPISILYIAAAYKQYEDM (Non-cyclic GFR-binding peptide) [SEQ ID NO: 185]”, for which the P53 in assay [1] was 47. The sequence further yielded a pRB in assay [2] of 8.
With “VSQAARPVQTRKIDDMGVPTKKATVAAVKSDDMGVPT (also: cyclic peptide) [SEQ ID NO: 38220]”, the “P53 (%)” value in assay [1] (setting [4]) is reported as 42%. Moreover, in assay [2] (setting [4]), the “pRB (%)” value is given as 9%.
